{
  "source": "patent US11571480B2",
  "about": "“Multi-ligand drug conjugates and uses thereof” (priority 2015, dated 2023)",
  "key": {"[1]": {"tested_on": "melanoma cell line A375", "experiment": "Cytotoxicity test of conjugate LDC10BR", "assay_type": "cell-based", "settings": "A375, incubated 15-30 min, then 2-3 days"}, "[2]": {"tested_on": "human nasopharyngeal cancer cell line KB", "experiment": "Cytotoxicity test of conjugate LDC10BR", "assay_type": "cell-based", "settings": "incubated 15-30 min, then 2-3 days"}},
  "note": "Square brackets hold non-standard residues; d marks the D form. Peptide text beside a SMILES is read from it. * marks the point of attachment. Dolaproine = CO[C@@H]([C@@H]1CCCN1)[C@@H](C)C(=O)O; Dil = CC[C@H](C)[C@H](NC)[C@@H](CC(=O)O)OC; X1 = C[C@@H](N*)[C@@H](O)c1ccccc1; NMeV = CN[C@H](C(=O)O)C(C)C",
  "data": [
    {"smiles": "CC[C@H](C)[C@@H]([C@@H](CC(=O)N1CCC[C@H]1[C@H](OC)[C@@H](C)C(=O)N[C@H](C)[C@@H](O)c1ccccc1)OC)N(C)C(=O)[C@@H](NC(=O)[C@@H](NC)C(C)C)C(C)C", "note": "[MMAE] (H-[NMeV]V[Dil][Dolaproine]-X1)", "values": [
      {"measurement": "IC50", "setting": "[1]", "value": 0.085, "unit": "µM"},
      {"measurement": "IC50", "setting": "[2]", "value": 0.02, "unit": "µM"}
    ]}
  ]
}
